≈ marks a conversion by molar mass, not a printed value.

This note sets out measurements from paper PMC12153338, “Resistance to oxyimino-cephalosporins conferred by an alternative mechanism of hydrolysis by the Acinetobacter-derived cephalosporinase-33 (ADC-33), a class C β-lactamase present in carbapenem-resistant Acinetobacter baumannii (CRAb)” (mBio, 2025).

The subject of the first assay is DH10B alone. In words: MIC by broth microdilution, DH10B alone. The settings on record: Escherichia coli; DH10B alone (control strain); FDC in iron-depleted cation-adjusted MH broth. Format: cell-based. How it is done:
(§1) Susceptibility testing to standard antibiotics was performed by broth microdilution according to 2024 Clinical and Laboratory Standards Institute (CLSI) guidelines ([38]). MICs for FDC were done in iron-depleted cation-adjusted Mueller-Hinton (MH) broth according to CLSI methods. All MICs were interpreted according to the 2024 CLSI guidelines ([38]). MICs are done in triplicate, and the mode MIC value is reported.
(§2) blaADC-7 pBCSK− was cloned and expressed in E. coli DH10B cells as previously described for MIC determinations ([3]). The pBCSK-non-inducible phagemid vector has a chloramphenicol resistance gene used to aid selection. All other blaADC variants were synthesized by GenScript according to the blaADC-7 pBCSK− strategy, cloning into the XbaI/BamHI sites of the pBCSK− vector ([5]).
A general note: Dilution methods test growth across graded concentrations, often in twofold steps.
Compound `C[C@H]1[C@H](NC(=O)/C(=N\OC(C)(C)C(=O)O)c2csc(N)n2)C(=O)N1S(=O)(=O)O` [ATM, aztreonam] returned an MIC of 0.25 µg/mL (≈ 0.574 µM).

For the compound `CC(=O)OCC1=C(C(=O)O)N2C(=O)[C@@H](NC(=O)Cc3cccs3)[C@H]2SC1` [CEF, cephalothin], it took 16 µg/mL (≈ 40.4 µM) to inhibit growth (MIC).

`CO/N=C(\C(=O)N[C@@H]1C(=O)N2C(C(=O)O)=C(COC(C)=O)CS[C@H]12)c1csc(N)n1` [CTX, cefotaxime] registered an MIC of 0.12 µg/mL (≈ 0.263 µM).

For a further assay, the system named is ADC-73 in DH10B Escherichia coli. Briefly: MIC by broth microdilution, ADC-73 in DH10B E. coli. The assay is classed as cell-based. To be noted: DH10B E. coli expressing ADC-73 (non-Adup) from pBCSK−, FDC in iron-depleted cation-adjusted MH broth, mode of triplicate. How it is done:
as §1, §2
In turn, `C[C@H]1[C@H](NC(=O)/C(=N\OC(C)(C)C(=O)O)c2csc(N)n2)C(=O)N1S(=O)(=O)O` [ATM, aztreonam] yielded an MIC of 2 µg/mL (≈ 4.59 µM).

As for `CC(=O)OCC1=C(C(=O)O)N2C(=O)[C@@H](NC(=O)Cc3cccs3)[C@H]2SC1` [CEF, cephalothin], the MIC was found to be 2050 µg/mL (≈ 5170 µM).

On to `CO/N=C(\C(=O)N[C@@H]1C(=O)N2C(C(=O)O)=C(COC(C)=O)CS[C@H]12)c1csc(N)n1` [CTX, cefotaxime], for which the MIC came out at 32 µg/mL (≈ 70.3 µM).

The next assay relates to ADC-219 in DH10B Escherichia coli. Briefly: MIC by broth microdilution, ADC-219 in DH10B E. coli. Format: cell-based. The settings on record: DH10B E. coli expressing ADC-219 (Adup) from pBCSK−, FDC in iron-depleted cation-adjusted MH broth, mode of triplicate. How it is done: as §1, §2
In turn, `C[C@H]1[C@H](NC(=O)/C(=N\OC(C)(C)C(=O)O)c2csc(N)n2)C(=O)N1S(=O)(=O)O` [ATM, aztreonam] yielded an MIC of 32 µg/mL (≈ 73.5 µM).

Take `CC(=O)OCC1=C(C(=O)O)N2C(=O)[C@@H](NC(=O)Cc3cccs3)[C@H]2SC1` [CEF, cephalothin]: the MIC is 1020 µg/mL (≈ 2580 µM).

Compound `CO/N=C(\C(=O)N[C@@H]1C(=O)N2C(C(=O)O)=C(COC(C)=O)CS[C@H]12)c1csc(N)n1` [CTX, cefotaxime] returned an MIC of 32 µg/mL (≈ 70.3 µM).

Another assay has as its system ADC-33 in DH10B Escherichia coli. Briefly: MIC by broth microdilution, ADC-33 in DH10B E. coli. The assay is classed as cell-based. The settings on record: DH10B E. coli expressing ADC-33 (Adup) from pBCSK−, FDC in iron-depleted cation-adjusted MH broth, mode of triplicate. How it is done: as §1, §2
On to `C[C@H]1[C@H](NC(=O)/C(=N\OC(C)(C)C(=O)O)c2csc(N)n2)C(=O)N1S(=O)(=O)O` [ATM, aztreonam], for which the MIC was 64 µg/mL (≈ 147 µM).

Consider `CC(=O)OCC1=C(C(=O)O)N2C(=O)[C@@H](NC(=O)Cc3cccs3)[C@H]2SC1` [CEF, cephalothin], for which the MIC came to 2050 µg/mL (≈ 5170 µM).

In the case of `CO/N=C(\C(=O)N[C@@H]1C(=O)N2C(C(=O)O)=C(COC(C)=O)CS[C@H]12)c1csc(N)n1` [CTX, cefotaxime], the MIC was 64 µg/mL (≈ 141 µM).

The subject of a further assay is ADC-172 in DH10B Escherichia coli. In words: MIC by broth microdilution, ADC-172 in DH10B E. coli. To be noted: Escherichia coli; DH10B E. coli expressing ADC-172 (Adup) from pBCSK−; FDC in iron-depleted cation-adjusted MH broth; mode of triplicate; read-out: MIC. The assay is classed as cell-based. How it is done: as §1, §2
On to `C[C@H]1[C@H](NC(=O)/C(=N\OC(C)(C)C(=O)O)c2csc(N)n2)C(=O)N1S(=O)(=O)O` [ATM, aztreonam], for which the MIC was found to be 32 µg/mL (≈ 73.5 µM).

Regarding `CC(=O)OCC1=C(C(=O)O)N2C(=O)[C@@H](NC(=O)Cc3cccs3)[C@H]2SC1` [CEF, cephalothin], the MIC was determined as 2050 µg/mL (≈ 5170 µM).

As for `CO/N=C(\C(=O)N[C@@H]1C(=O)N2C(C(=O)O)=C(COC(C)=O)CS[C@H]12)c1csc(N)n1` [CTX, cefotaxime], the MIC was found to be 32 µg/mL (≈ 70.3 µM).

Another assay concerns ADC-7 in DH10B Escherichia coli. Briefly: MIC by broth microdilution, ADC-7 in DH10B E. coli. Format: cell-based. To be noted: DH10B E. coli expressing ADC-7 (non-Adup) from pBCSK−, FDC in iron-depleted cation-adjusted MH broth, mode of triplicate. How it is done:
as §1, §2
In turn, `C[C@H]1[C@H](NC(=O)/C(=N\OC(C)(C)C(=O)O)c2csc(N)n2)C(=O)N1S(=O)(=O)O` [ATM, aztreonam] gave an MIC of 8 µg/mL (≈ 18.4 µM).

In turn, `CC(=O)OCC1=C(C(=O)O)N2C(=O)[C@@H](NC(=O)Cc3cccs3)[C@H]2SC1` [CEF, cephalothin] returned a minimal inhibitory concentration (MIC) of 4100 µg/mL (≈ 10300 µM).

`CO/N=C(\C(=O)N[C@@H]1C(=O)N2C(C(=O)O)=C(COC(C)=O)CS[C@H]12)c1csc(N)n1` [CTX, cefotaxime]: the MIC came out at 64 µg/mL (≈ 141 µM).

The subject of a further assay is ADC-217 in DH10B Escherichia coli. Briefly: MIC by broth microdilution, ADC-217 in DH10B E. coli. The settings on record: DH10B E. coli expressing ADC-217 (non-Adup) from pBCSK−, FDC in iron-depleted cation-adjusted MH broth, mode of triplicate. Format: cell-based. The protocol:
as §1, §2
As for `C[C@H]1[C@H](NC(=O)/C(=N\OC(C)(C)C(=O)O)c2csc(N)n2)C(=O)N1S(=O)(=O)O` [ATM, aztreonam], the MIC is 8 µg/mL (≈ 18.4 µM).

For the compound `CC(=O)OCC1=C(C(=O)O)N2C(=O)[C@@H](NC(=O)Cc3cccs3)[C@H]2SC1` [CEF, cephalothin], the MIC amounted to 2050 µg/mL (≈ 5170 µM).

In turn, `CO/N=C(\C(=O)N[C@@H]1C(=O)N2C(C(=O)O)=C(COC(C)=O)CS[C@H]12)c1csc(N)n1` [CTX, cefotaxime] had an MIC of 64 µg/mL (≈ 141 µM).

In another assay the test system is DH10B Escherichia coli pBCSK− no insert. Briefly: MIC by broth microdilution, DH10B E. coli with pBCSK− no insert. The assay is classed as cell-based. To be noted: DH10B E. coli with pBCSK− no insert (control strain), FDC in iron-depleted cation-adjusted MH broth. How it is done: as §1, §2
With `C[C@H]1[C@H](NC(=O)/C(=N\OC(C)(C)C(=O)O)c2csc(N)n2)C(=O)N1S(=O)(=O)O` [ATM, aztreonam], the MIC came to 0.12 µg/mL (≈ 0.276 µM).

Compound `CC(=O)OCC1=C(C(=O)O)N2C(=O)[C@@H](NC(=O)Cc3cccs3)[C@H]2SC1` [CEF, cephalothin] yielded a minimal inhibitory concentration (MIC) of 8 µg/mL (≈ 20.2 µM).

Consider `CO/N=C(\C(=O)N[C@@H]1C(=O)N2C(C(=O)O)=C(COC(C)=O)CS[C@H]12)c1csc(N)n1` [CTX, cefotaxime], for which the minimal inhibitory concentration (MIC) was 0.06 µg/mL (≈ 0.132 µM).

The test system of another assay is ADC-143 in DH10B Escherichia coli. In words: MIC by broth microdilution, ADC-143 in DH10B E. coli. To be noted: DH10B E. coli expressing ADC-143 (non-Adup) from pBCSK−, FDC in iron-depleted cation-adjusted MH broth, mode of triplicate. The assay is classed as cell-based. The protocol: as §1, §2
For the compound `C[C@H]1[C@H](NC(=O)/C(=N\OC(C)(C)C(=O)O)c2csc(N)n2)C(=O)N1S(=O)(=O)O` [ATM, aztreonam], the MIC worked out at 16 µg/mL (≈ 36.7 µM).

In turn, `CC(=O)OCC1=C(C(=O)O)N2C(=O)[C@@H](NC(=O)Cc3cccs3)[C@H]2SC1` [CEF, cephalothin] displayed an MIC of 2050 µg/mL (≈ 5170 µM).

`CO/N=C(\C(=O)N[C@@H]1C(=O)N2C(C(=O)O)=C(COC(C)=O)CS[C@H]12)c1csc(N)n1` [CTX, cefotaxime] gave an MIC of 32 µg/mL (≈ 70.3 µM).

Another assay relates to ADC-30 in DH10B Escherichia coli. In words: MIC by broth microdilution, ADC-30 in DH10B E. coli. Format: cell-based. The settings on record: DH10B E. coli expressing ADC-30 (non-Adup) from pBCSK−, FDC in iron-depleted cation-adjusted MH broth, mode of triplicate. The protocol:
as §1, §2
`C[C@H]1[C@H](NC(=O)/C(=N\OC(C)(C)C(=O)O)c2csc(N)n2)C(=O)N1S(=O)(=O)O` [ATM, aztreonam] displayed an MIC of 8 µg/mL (≈ 18.4 µM).

`CC(=O)OCC1=C(C(=O)O)N2C(=O)[C@@H](NC(=O)Cc3cccs3)[C@H]2SC1` [CEF, cephalothin] gave an MIC of 4100 µg/mL (≈ 10300 µM).

`CO/N=C(\C(=O)N[C@@H]1C(=O)N2C(C(=O)O)=C(COC(C)=O)CS[C@H]12)c1csc(N)n1` [CTX, cefotaxime] yielded an MIC of 32 µg/mL (≈ 70.3 µM).

Another assay relates to ADC-218 in DH10B Escherichia coli. In words: MIC by broth microdilution, ADC-218 in DH10B E. coli. The settings on record: DH10B E. coli expressing ADC-218 (Adup) from pBCSK−, FDC in iron-depleted cation-adjusted MH broth, mode of triplicate. Format: cell-based. How it is done:
as §1, §2
As for `C[C@H]1[C@H](NC(=O)/C(=N\OC(C)(C)C(=O)O)c2csc(N)n2)C(=O)N1S(=O)(=O)O` [ATM, aztreonam], the MIC stood at 256 µg/mL (≈ 588 µM).

`CC(=O)OCC1=C(C(=O)O)N2C(=O)[C@@H](NC(=O)Cc3cccs3)[C@H]2SC1` [CEF, cephalothin] showed an MIC of 2050 µg/mL (≈ 5170 µM).

Consider `CO/N=C(\C(=O)N[C@@H]1C(=O)N2C(C(=O)O)=C(COC(C)=O)CS[C@H]12)c1csc(N)n1` [CTX, cefotaxime], for which the MIC was determined as 256 µg/mL (≈ 562 µM).

For orientation: MIC means the least concentration at which growth counts as inhibited.
